The test has as its target T1, LmxCLK1 (Leishmania mexicana, UniProt E9AMP2).
T1 sequence (E9AMP2 1-422): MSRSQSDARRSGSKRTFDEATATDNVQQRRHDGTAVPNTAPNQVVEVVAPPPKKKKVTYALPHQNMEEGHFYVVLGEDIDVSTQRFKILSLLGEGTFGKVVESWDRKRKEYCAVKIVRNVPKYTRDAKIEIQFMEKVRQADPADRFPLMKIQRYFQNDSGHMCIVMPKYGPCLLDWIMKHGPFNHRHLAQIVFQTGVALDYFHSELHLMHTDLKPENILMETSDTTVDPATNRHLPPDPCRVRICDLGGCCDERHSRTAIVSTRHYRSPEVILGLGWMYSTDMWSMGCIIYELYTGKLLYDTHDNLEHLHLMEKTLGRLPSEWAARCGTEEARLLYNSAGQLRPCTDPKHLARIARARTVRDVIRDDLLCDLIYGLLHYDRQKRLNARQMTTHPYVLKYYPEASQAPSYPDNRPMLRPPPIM
Description: biochemical. Type of test: binding.

The mark [1] stands for this setting: DSF, 10 µM compound, 2 µM LmxCLK1, Run 1.
Where [2] appears, read: DSF, 10 µM compound, 2 µM LmxCLK1, Run 2.
The mark [3] stands for this setting: DSF, 10 µM compound, 2 µM LmxCLK1, mean of two runs.
[4] abbreviates: DSF, 10 µM compound, 2 µM LmxCLK1, Run 1, read-out: ΔTm Run 1.
Setting [5] is: DSF, 10 µM compound, 2 µM LmxCLK1, Run 2, read-out: ΔTm Run 2.
Where [6] appears, read: DSF, 10 µM compound, 2 µM LmxCLK1, mean of two runs, read-out: ΔTm Average.

Read-outs that look alike come from different tables or passages of the source.

Broadly, the ΔTm is the change in melting temperature against a reference sample.

`CN(C)CCSSCCNC(=O)C1CCN(C(=O)CSc2ccc(Cl)cc2)CC1` [6H05]: the “ΔTm Average” value is listed as -0.1, the ΔTm Run 1 was found to be 0.1 °C and the “ΔTm Run 2” value is given as -0.2.
For the compound `Cc1nc(NC(=O)N2CCC[C@H]2C(N)=O)sc1-c1csc(C(C)(C)C)n1` [A66], the ΔTm Average stood at 0 °C, the ΔTm Run 1 turned out to be 0.4 °C and the “ΔTm Run 2” value is on record as -0.3.
For the compound `Cc1[nH]nc2ccc(-c3cncc(OC[C@@H](N)Cc4ccccc4)c3)cc12` [A-674563], the ΔTm Average came out at 0.7 °C, the ΔTm Run 1 stood at 0.8 °C and the ΔTm Run 2 was 0.6 °C.
For `Cc1c(NC(=O)OC[C@@H]2COCCN2)cn2ncnc(Nc3ccc4c(cnn4Cc4cccc(F)c4)c3)c12` [AC480 (BMS-599626)], under setting [1], the “ΔTm Run 1” value was 0.4 °C. Besides, the “ΔTm Run 2” value under setting [2] was found to be 0.2 °C. Besides, the “ΔTm Average” value under setting [3] was 0.3 °C.
Taken in the same sequence, the figures for `CCN1CCN(Cc2ccc(-c3cc4c(N[C@H](C)c5ccccc5)ncnc4[nH]3)cc2)CC1` [AEE788 (NVP-AEE788)] were 0.2 °C, 0.3 °C and 0.3 °C.
Consider `CC(C)(C)c1cc(C=C(C#N)C#N)cc(Br)c1O` [AG-1024], for which, under setting [1], the “ΔTm Run 1” value came to 0.0 °C. Moreover, under setting [2], the “ΔTm Run 2” value was -0.2 °C. In addition, the “ΔTm Average” value under setting [3] was -0.1 °C.
With `COc1cc2ncnc(Nc3cccc(Cl)c3)c2cc1OC` [AG-1478 (Tyrphostin AG-1478)], under setting [1], the “ΔTm Run 1” value is 0.1 °C. Moreover, the “ΔTm Run 2” value under setting [2] is 0.3 °C. The “ΔTm Average” value under setting [3] turned out to be 0.2 °C.
On to `COc1ccc2c(Oc3ccc(NC(=O)c4c(C)n(CC(C)(C)O)n(-c5ccccc5)c4=O)nc3)ccnc2c1` [AMG-458], for which, under setting [1], the “ΔTm Run 1” value is 0.9 °C. Also, the “ΔTm Run 2” value under setting [2] was 1.0 °C. Also, the “ΔTm Average” value under setting [3] was 1.0 °C.
On to `COc1cc(N2CCC(N3CCN(C)CC3)CC2)ccc1Nc1ncc(Cl)c(Nc2ccccc2P(C)(C)=O)n1` [AP26113], for which the ΔTm at 10 µM was 1.1 °C under setting [4], 0.9 °C under setting [5] and 1 °C under setting [6].
Turning to `COc1ccc(CNC(=O)Nc2ncc([N+](=O)[O-])s2)cc1` [AR-A014418], the “ΔTm Run 1” value under setting [1] was found to be 0.0 °C. Further, the “ΔTm Run 2” value under setting [2] is -0.1 °C. The “ΔTm Average” value under setting [3] is -0.1 °C.
`Clc1ccc(C2(c3ccc(-c4cn[nH]c4)cc3)CCNCC2)cc1` [AT7867]: under setting [1], the “ΔTm Run 1” value is 1.2 °C. For the same compound, under setting [2], the “ΔTm Run 2” value is 0.7 °C. The “ΔTm Average” value under setting [3] was 0.9 °C.
Consider `O=C(Nc1c[nH]nc1-c1nc2ccc(CN3CCOCC3)cc2[nH]1)NC1CC1` [AT9283], for which the thermal shift (ΔTm) at 10 µM stood at 2.2 °C under setting [4], 2.1 °C under setting [5] and 2.2 °C under setting [6].
Take `C=CC(=O)Nc1cccc(Nc2nc(Nc3ccc(OCCOC)cc3)ncc2F)c1` [AVL-292]: the thermal shift (ΔTm) at 10 µM reads like this: under setting [4], 0 °C; under setting [5], -0.2 °C; under setting [6], -0.1 °C.
On to `C[C@@H]1COCCN1c1cc(C2(S(C)(=O)=O)CC2)nc(-c2cccc3[nH]ccc23)n1` [AZ20], for which the “ΔTm Average” value is recorded as -0.3, the “ΔTm Run 1” value was -0.2 and the “ΔTm Run 2” value is reported as -0.5.
On to `Cc1ccc(NC(=O)c2cccc(C(C)(C)C#N)c2)cc1Nc1ccc2ncn(C)c(=O)c2c1` [AZ 628], for which the “ΔTm Run 1” value under setting [1] stood at 0.4 °C. Further, the “ΔTm Run 2” value under setting [2] came to 0.2 °C. Also, under setting [3], the “ΔTm Average” value was 0.3 °C.
For the compound `Cc1cc(Nc2nc(N[C@@H](C)c3ccc(F)cc3)c(C#N)cc2F)[nH]n1` [AZ 960], the ΔTm at 10 µM was 0.3 °C under setting [4], 0.3 °C under setting [5] and 0.3 °C under setting [6].
Regarding `N#Cc1ccc2[nH]c(O)c(-c3ccc(CN4CCOCC4)cn3)c2c1` [AZD1080], the ΔTm at 10 µM reads like this: under setting [4], 0.1 °C; under setting [5], -0.2 °C; under setting [6], -0.1 °C.
On the same counts, the results for `Cc1cc(Nc2nc(N[C@@H](C)c3ncc(F)cn3)ncc2Cl)n[nH]1` [AZD1480] are 0.6 °C, 0.5 °C and 0.6 °C.
With `Cc1ncc(-c2ccnc(Nc3ccc(S(C)(=O)=O)cc3)n2)n1C(C)C` [AZD5438], the ΔTm at 10 µM by setting is: under setting [4], 1.2 °C; under setting [5], 0.8 °C; under setting [6], 1 °C.
On the same counts, the results for `Cc1cc([C@@H](C)Nc2ccccc2C(=O)O)c2nc(N3CCOCC3)cc(=O)n2c1` [AZD6482] are 0.1 °C, -0.1 °C and 0 °C.
For the compound `NC(=O)Nc1cc(-c2cccc(F)c2)sc1C(=O)N[C@H]1CCCNC1` [AZD7762], the ΔTm at 10 µM was determined as 3.5 °C under setting [4], 3.1 °C under setting [5] and 3.3 °C under setting [6].
With `COc1ccc(-c2ccc3c(N4CCOC[C@@H]4C)nc(N4CCOC[C@@H]4C)nc3n2)cc1CO` [AZD8055], the ΔTm at 10 µM by setting is: under setting [4], 0.4 °C; under setting [5], 0.3 °C; under setting [6], 0.3 °C.
For `Cc1cc(C(=O)NOCCO)c(Nc2ccc(I)cc2F)n(C)c1=O` [AZD8330], the ΔTm at 10 µM is, setting by setting: under setting [4], 0.5 °C; under setting [5], 0.2 °C; under setting [6], 0.3 °C.
On to `CNC(=O)CN1CCC(Oc2cc3c(Nc4cccc(Cl)c4F)ncnc3cc2OC)CC1` [AZD8931 (Sapitinib)], for which the “ΔTm Run 1” value under setting [1] is -0.1 °C. Under setting [2], the “ΔTm Run 2” value is -0.2 °C. Further, the “ΔTm Average” value under setting [3] is -0.1 °C.
As for `C=CC(=O)Nc1cc(Nc2nccc(-c3cn(C)c4ccccc34)n2)c(OC)cc1N(C)CCN(C)C` [AZD9291], the ΔTm at 10 µM is 0 °C under setting [4], -0.3 °C under setting [5] and -0.2 °C under setting [6].
Taken in the same sequence, the figures for `NC(=O)c1ncn([C@@H]2O[C@H](CO)[C@@H](O)[C@H]2O)c1N` [Acadesine] were -0.2 °C, -0.2 °C and -0.2 °C.
For the compound `CN(C)C/C=C/C(=O)Nc1cc2c(Nc3ccc(F)c(Cl)c3)ncnc2cc1O[C@H]1CCOC1` [Afatinib (BIBW2992)], the ΔTm at 10 µM was 0.1 °C under setting [4], -0.5 °C under setting [5] and -0.2 °C under setting [6].
Consider `COc1cc(Nc2ncc3c(n2)-c2ccc(Cl)cc2C(c2c(F)cccc2OC)=NC3)ccc1C(=O)O` [Alisertib (MLN8237)], for which the ΔTm at 10 µM reads like this: under setting [4], 0.1 °C; under setting [5], -0.3 °C; under setting [6], -0.1 °C.
Regarding `S=C(NCc1ccc2c(c1)OCO2)N1CCN(c2ncnc3c2oc2ccccc23)CC1` [Amuvatinib (MP-470)], the “ΔTm Run 1” value under setting [1] stood at 0.1 °C. Also, the “ΔTm Run 2” value under setting [2] came out at 0.0 °C. Besides, the “ΔTm Average” value under setting [3] stood at 0.1 °C.
Turning to `CCN1CCN(C(=O)Cc2ccc(Nc3ncc(F)c(Nc4ccc(C(=O)Nc5ccccc5Cl)cc4)n3)cc2)CC1` [Aurora A Inhibitor I], the “ΔTm Run 1” value under setting [1] is 0.0 °C. Also, the “ΔTm Run 2” value under setting [2] is -0.1 °C. For the same compound, the “ΔTm Average” value under setting [3] is -0.1 °C.
Turning to `CNC(=O)c1ccccc1Sc1ccc2c(/C=C/c3ccccn3)n[nH]c2c1` [Axitinib], the ΔTm at 10 µM under setting [4] came to 0.6 °C, the ΔTm at 10 µM under setting [5] was determined as 0.4 °C and the ΔTm at 10 µM under setting [6] was found to be 0.5 °C.
In the case of `COc1ccc(-c2ccc3ncc4c(c3c2)n(-c2ccc(N3CCNCC3)c(C(F)(F)F)c2)c(=O)n4C)cn1` [BGT226 (NVP-BGT226)], under setting [1], the “ΔTm Run 1” value amounted to 0.9 °C. Under setting [2], the “ΔTm Run 2” value was 0.7 °C. Also, the “ΔTm Average” value under setting [3] was 0.8 °C.
On to `CC(C)CCN1c2nc(Nc3cc(F)c(O)c(F)c3)ncc2N(C)C(=O)C1C` (stereo not drawn) [BI-D1870], for which the “ΔTm Run 1” value under setting [1] worked out at 0.4 °C. For the same compound, the “ΔTm Run 2” value under setting [2] amounted to 0.0 °C. Under setting [3], the “ΔTm Average” value amounted to 0.2 °C.
Turning to `Cc1ccc(-n2nc(C(C)(C)C)cc2NC(=O)Nc2ccc(OCCN3CCOCC3)c3ccccc23)cc1` [BIRB 796 (Doramapimod)], the “ΔTm Run 1” value under setting [1] is 0.5 °C. Moreover, the “ΔTm Run 2” value under setting [2] stood at 0.4 °C. In addition, under setting [3], the “ΔTm Average” value worked out at 0.4 °C.
Consider `CN(C)Cc1cccc(N/C(=C2\C(=O)Nc3cc(C(=O)N(C)C)ccc32)c2ccccc2)c1` [BIX 02189], for which the “ΔTm Average” value is -0.3, the “ΔTm Run 1” value is recorded as -0.2 and the “ΔTm Run 2” value was -0.4.
As for `Nc1cc(C(F)(F)F)c(-c2cc(N3CCOCC3)nc(N3CCOCC3)n2)cn1` [BKM120 (NVP-BKM120)], the “ΔTm Run 1” value under setting [1] worked out at 0.1 °C. Besides, the “ΔTm Run 2” value under setting [2] was 0.2 °C. For the same compound, the “ΔTm Average” value under setting [3] came to 0.1 °C.
Turning to `CCCCOc1c(C(=O)c2c(F)cc(C)cc2F)c[nH]c2nncc1-2` [BMS-265246], the ΔTm at 10 µM by setting is: under setting [4], -0.1 °C; under setting [5], -0.3 °C; under setting [6], -0.2 °C.
Turning to `Cc1cc(N2CCOCC2)cc2[nH]c(-c3c(NC[C@@H](O)c4cccc(Cl)c4)cc[nH]c3=O)nc12` [BMS-536924], the “ΔTm Run 1” value under setting [1] worked out at 0.2 °C. The “ΔTm Run 2” value under setting [2] came to 0.1 °C. In addition, the “ΔTm Average” value under setting [3] is 0.1 °C.
As to `CCOc1ccn(-c2ccc(F)cc2)c(=O)c1C(=O)Nc1ccc(Oc2ccnc(N)c2Cl)c(F)c1` [BMS-777607], the ΔTm at 10 µM under setting [4] came out at 0.5 °C, the ΔTm at 10 µM under setting [5] is -0.2 °C and the ΔTm at 10 µM under setting [6] is 0.2 °C.
Regarding `Nc1nccc(Oc2ccc(NC(=O)c3c[nH]cc(-c4ccc(F)cc4)c3=O)cc2F)c1Cl` [BMS-794833], the ΔTm at 10 µM runs as follows: under setting [4], -0.1 °C; under setting [5], -0.4 °C; under setting [6], -0.3 °C.
